{"source": "patent US11407748B2", "about": "“Substituted pyrido[1,2-a]pyrimidines and pyrazino[1,2-a]pyrimidines for enhancing AMPA receptor function” (Takeda Pharmaceutical Company Limited, priority 2017, dated 2022)", "data": [{"target": "T1, hGluR1 flip (Homo sapiens, UniProt P42261)", "T1 construct": "expressed in transfected cells; host or cells: CHO-K1", "T1 sequence (P42261 19-906 isoform P42261-2 limits assumed)": "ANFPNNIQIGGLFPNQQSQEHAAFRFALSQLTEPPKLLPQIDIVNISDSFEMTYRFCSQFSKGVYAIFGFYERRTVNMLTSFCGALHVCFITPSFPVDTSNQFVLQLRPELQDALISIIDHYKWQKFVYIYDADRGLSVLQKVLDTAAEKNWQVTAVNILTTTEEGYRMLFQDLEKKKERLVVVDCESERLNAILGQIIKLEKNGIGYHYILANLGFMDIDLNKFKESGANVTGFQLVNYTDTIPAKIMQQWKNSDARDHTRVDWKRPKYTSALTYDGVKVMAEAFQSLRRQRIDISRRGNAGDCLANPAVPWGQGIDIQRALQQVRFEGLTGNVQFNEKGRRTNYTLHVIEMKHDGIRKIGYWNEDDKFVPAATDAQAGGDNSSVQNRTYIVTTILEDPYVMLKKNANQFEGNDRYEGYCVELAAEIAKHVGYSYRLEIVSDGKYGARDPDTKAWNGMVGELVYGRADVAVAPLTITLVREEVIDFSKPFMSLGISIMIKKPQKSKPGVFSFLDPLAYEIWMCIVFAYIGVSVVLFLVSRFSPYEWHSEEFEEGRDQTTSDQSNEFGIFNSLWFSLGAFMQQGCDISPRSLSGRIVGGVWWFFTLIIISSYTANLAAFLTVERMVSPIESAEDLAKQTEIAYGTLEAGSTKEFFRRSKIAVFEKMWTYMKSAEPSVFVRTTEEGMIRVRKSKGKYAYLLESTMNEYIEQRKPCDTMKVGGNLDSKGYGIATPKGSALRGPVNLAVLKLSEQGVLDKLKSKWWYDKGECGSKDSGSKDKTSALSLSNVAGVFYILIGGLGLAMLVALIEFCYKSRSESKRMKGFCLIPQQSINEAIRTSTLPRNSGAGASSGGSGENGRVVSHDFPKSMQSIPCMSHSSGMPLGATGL", "T1 sequence (Q9Y698 whole entry partner)": "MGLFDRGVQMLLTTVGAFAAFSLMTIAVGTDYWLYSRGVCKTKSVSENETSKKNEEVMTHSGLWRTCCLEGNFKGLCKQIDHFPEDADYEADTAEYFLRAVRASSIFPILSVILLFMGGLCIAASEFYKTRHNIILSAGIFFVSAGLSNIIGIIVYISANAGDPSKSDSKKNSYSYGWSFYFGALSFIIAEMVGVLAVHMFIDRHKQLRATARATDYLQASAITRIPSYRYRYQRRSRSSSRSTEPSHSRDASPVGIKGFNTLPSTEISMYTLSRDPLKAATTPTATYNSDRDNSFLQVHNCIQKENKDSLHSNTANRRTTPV", "experiment": "AMPA receptor function-enhancing activity using calcium influx as index", "type": "cell-based", "conditions": "test compound 30 μM with 3 mM glutamic acid; CHO-K1/GluR1 flip/stargazin-expressing cells; 100% = 3 mM glutamic acid + 300 μM cyclothiazide, 0% = 3 mM glutamic acid alone", "text": "Experimental Example 1 Measurement Method of AMPA Receptor Function-Enhancing Activity of Compound Using Calcium Influx as Index\n(1) Construction of Expression Gene\nHuman GluR^1 flip cDNA was amplified by PCR method using forward primer […] (SEQ ID NO: 1) and reverse primer […] (SEQ ID NO: 2) artificially synthesized using human brain-derived cDNA (BD Bioscience) as a template. The amplified product was digested with restriction enzymes EcoRI, NotI (TAKARA SHUZO CO. LTD.) and incorporated into the same site of pcDNA3.1 (+) (Invitrogen) to construct pcDNA3.1(+)/human GluR1 flip gene. Human stargazin cDNA was amplified by PCR method using forward primer […] (SEQ ID NO: 3) and reverse primer […] (SEQ ID NO: 4) artificially synthesized using human hippocampus cDNA as a template. The amplified product was digested with restriction enzymes XhoI, BamHI (TAKARA SHUZO CO. LTD.) and incorporated into the same site of pcDNA3.1(−) (Invitrogen) to construct pcDNA3.1 Zeo(−)/human stargazing gene.\n(2) Construction of GluR1 Flip/Stargazin Expressing Cell\nCHO-K1 cells passaged in a culture medium (Ham's F12 medium (Invitrogen) added with 10% inactivated fetal bovine serum (Morgate) and penicillin, streptomycin (Invitrogen)) were detached using 0.05% trypsin and 0.53 mM EDTA (Invitrogen) diluted with D-PBS(−). The detached cells were suspended in a culture medium, and recovered by centrifugation at 1,000 rpm. The recovered cells were re-suspended in D-PBS(−) and added into 0.4 cm electroporation cuvette (BioRad). pcDNA3.1(+)/human GluR1 flip gene (5 μg) and pcDNA3.1 Zeo(−)/human stargazin gene (15 μg) were added, and introduced into CHO-K1 cells under the conditions of 950 μFd, […] and using Gene Pulser II (BioRad). The introduced cells were cultured overnight in a culture medium. The next day, using a selection medium (culture medium added with zeocin (Invitrogen) at 250 μg/mL), the cells were plated in a 96 well plate at 250 cells/well. The clones showing drug resistance were selected, and GluR1 flip/stargazin expression clones were selected by an assay method shown below using calcium influx as an index.\n(3) Measurement Method of AMPA Receptor Function-Enhancing Activity of Compound, Using Calcium Influx as an Index\nCHO-K1/GluR1 flip/stargazin-expressing cells were plated on a 384 well black bottom transparent plate, and cultured for 2 days in a CO2 incubator (SANYO ELECTRIC Co. Ltd.) at 37° C. The medium of the cell plate was removed. A calcium indicator (Calcium5 Assay Kit, Molecular Devices) was diluted with an assay buffer (HESS (Thermo Fisher Scientific), 0.1% BSA (Merck Millipoer) and 10 mM HEPES (Thermo Fisher Scientific)), and 1.25 mM probenecid (Dojindo Laboratories) was added thereto. The mixture prepared above was added at 30 μL/well (100 μL/well in case of 96 wells) to the well, and the well was left standing in 37° C., CO2 incubator for 1 hr. The cell plate was set in CellLux (PerkinElmer), a mixture (15 μL) (50 μL/well in case of 96 wells) of 9 mM glutamic acid (final concentration 3 mM) diluted with an assay buffer and a test compound (test compound concentration 30 μM) was added thereto, and variation in the amount of fluorescence was measured for 3 min. The variation of fluorescence level of a well added with final concentration 3 mM of glutamic acid and 300 μM cyclothiazide (TOCRIS) was defined as 100%, the variation of fluorescence level of a well added with final concentration 3 mM of glutamic acid alone was defined as 0%, and the activity of the compound was calculated by the following formula. activity (%)=(X−C)/(T−C)×100 • T: variation of fluorescence level of well added with final concentration 3 mM of glutamic acid and 300 μM cyclothiazide • C: variation of fluorescence level of well added with final concentration 3 mM of glutamic acid alone • X: variation of fluorescence level of well added with test compound", "units": {"activation at 30 µM": "%", "hGluR1 flip/30 μM (%)": "%"}, "values": [{"smiles": "Cc1c(C(F)(F)F)nc2c(-c3ccc(C(=O)N4CCO[C@@H](C)C4)cc3)cccn2c1=O", "note": "[Example 67, 3-methyl-9-(4-(((2S)2-methylmorpholin-4-yl)carbonyl)phenyl)-2-(trifluoromethyl)-4H-pyrido[1,2-a]pyrimidin-4-one]", "activation at 30 µM": 73.5}, {"smiles": "O=C(c1ccc(-c2cccn3c(=O)cc(C(F)(F)F)nc23)cc1)N1CCC(O)C(F)(F)C1", "note": "(centres unmarked) [Example 10, 9-(4-((3,3-difluoro-4-hydroxypiperidin-1-yl)carbonyl)phenyl)-2-(trifluoromethyl)-4H-pyrido[1,2-a]pyrimidin-4-one]", "activation at 30 µM": 72.7}, {"smiles": "CN(C(=O)c1ccc(-c2cccn3c(=O)cc(C(F)(F)F)nc23)cc1F)C1CCOCC1", "note": "[Example 82, 2-fluoro-N-methyl-4-(4-oxo-2-(trifluoromethyl)-4H-pyrido[1,2-a]pyrimidin-9-yl)-N-(tetrahydro-2H-pyran-4-yl)benzamide]", "activation at 30 µM": 81.4}, {"smiles": "O=C(c1ccc(-c2cccn3c(=O)c(Br)c(C(F)(F)F)nc23)cc1)N1CCOC(C(F)F)C1", "note": "(centres unmarked) [Example 103, 3-bromo-9-(4-((2-(difluoromethyl)morpholin-4-yl)carbonyl)phenyl)-2-(trifluoromethyl)-4H-pyrido[1,2-a]pyrimidin-4-one]", "activation at 30 µM": 88.6}, {"smiles": "Cc1c(C(F)(F)F)nc2c(-c3ccc(C(=O)N[C@H]4CCOC4)c(F)c3)cccn2c1=O", "note": "[Example 86, 2-fluoro-4-(3-methyl-4-oxo-2-(trifluoromethyl)-4H-pyrido[1,2-a]pyrimidin-9-yl)-N-((3S)-tetrahydrofuran-3-yl)benzamide]", "activation at 30 µM": 103}, {"smiles": "O=C(N[C@H]1CCCOC1)c1ccc(-c2cccn3c(=O)c(Br)c(C(F)(F)F)nc23)cc1", "note": "[Example 92, 4-(3-bromo-4-oxo-2-(trifluoromethyl)-4H-pyrido[1,2-a]pyrimidin-9-yl)-N-((3S)-tetrahydro-2H-pyran-3-yl)benzamide]", "activation at 30 µM": 78.9}, {"smiles": "Cc1c(C(F)(F)F)nc2c(-c3ccc(C(=O)N4CCOC(F)(F)C4)cc3)cccn2c1=O", "note": "[Example 68, 9-(4-((2,2-difluoromorpholin-4-yl)carbonyl)phenyl)-3-methyl-2-(trifluoromethyl)-4H-pyrido[1,2-a]pyrimidin-4-one]", "activation at 30 µM": 88.4}, {"smiles": "O=C(NC1CCOCC1)c1ccc(-c2cccn3c(=O)c(Cl)c(C(F)(F)F)nc23)cc1", "note": "[Example 131, 4-(3-chloro-4-oxo-2-(trifluoromethyl)-4H-pyrido[1,2-a]pyrimidin-9-yl)-N-(tetrahydro-2H-pyran-4-yl)benzamide]", "activation at 30 µM": 110}, {"smiles": "O=C(c1ccc(-c2cccn3c(=O)c(Br)c(C(F)(F)F)nc23)cc1F)N1CCOC(F)(F)C1", "note": "[Example 71, 3-bromo-9-(4-((2,2-difluoromorpholin-4-yl)carbonyl)-3-f1uorophenyl)-2-(trifluoromethyl)-4H-pyrido[1,2-a]pyrimidin-4-one]", "activation at 30 µM": 72.3}, {"smiles": "O=C(c1ccc(-c2cccn3c(=O)c(Cl)c(C(F)(F)F)nc23)cc1F)N1CCCOCC1", "note": "[Example 81, 3-chloro-9-(3-fluoro-4-(1,4-oxazepan-4-ylcarbonyl)phenyl)-2-(trifluoromethyl)-4H-pyrido[1,2-a]pyrimidin-4-one]", "activation at 30 µM": 95.1}, {"smiles": "Cc1c(C(F)(F)F)nc2c(-c3ccc(C(=O)N[C@H]4CCCOC4)c(F)c3)cccn2c1=O", "note": "[Example 115, 2-fluoro-4-(3-methyl-4-oxo-2-(trifluoromethyl)-4H-pyrido[1,2-a]pyrimidin-9-yl)-N-((3S)-tetrahydro-2H-pyran-3-yl)benzamide]", "activation at 30 µM": 87.9}, {"smiles": "O=C(N[C@@H]1CCCOC1)c1ccc(-c2cccn3c(=O)c(Br)c(C(F)(F)F)nc23)cc1F", "note": "[Example 111, 4-(3-bromo-4-oxo-2-(trifluoromethyl)-4H-pyrido[1,2-a]pyrimidin-9-yl)-2-fluoro-N-((3R)-tetrahydro-2H-pyran-3-yl)benzamide]", "activation at 30 µM": 91}, {"smiles": "O=C(NC1CCOCC1)c1ccc(-c2cccn3c(=O)c(Br)c(C(F)(F)F)nc23)cc1", "note": "[Example 57, 4-(3-bromo-4-oxo-2-(trifluoromethyl)-4H-pyrido[1,2-a]pyrimidin-9-yl)-N-(tetrahydro-2H-pyran-4-yl)benzamide]", "activation at 30 µM": 78.7}, {"smiles": "O=C(c1ccc(-c2cccn3c(=O)cc(C(F)(F)F)nc23)cc1)N1CCC(O)(C(F)(F)F)C1", "note": "(centres unmarked) [Example 16, 9-(4-((3-hydroxy-3-(trifluoromethyl)pyrrolidin-1-yl)carbonyl)phenyl)-2-(trifluoromethyl)-4H-pyrido[1,2-a]pyrimidin-4-one]", "hGluR1 flip/30 μM (%)": 88.3}, {"smiles": "O=C(c1ccc(-c2cccn3c(=O)c(Br)c(C(F)(F)F)nc23)cc1F)N1CC(F)(F)C1", "note": "[Example 130, 3-bromo-9-(4-((3,3-difluoroazetidin-1-yl)carbonyl)-3-fluorophenyl)-2-(trifluoromethyl)-4H-pyrido[1,2-a]pyrimidin-4-one]", "activation at 30 µM": 96}, {"smiles": "O=C(c1ccc(-c2cccn3c(=O)c(Br)c(C(F)(F)F)nc23)cc1)N1CCc2cccnc21", "note": "[Example 65, 3-bromo-9-(4-(2,3-dihydro-1H-pyrrolo[2,3-b]pyridin-1-ylcarbonyl)phenyl)-2-(trifluoromethyl)-4H-pyrido[1,2-a]pyrimidin-4-one]", "activation at 30 µM": 74.6}, {"smiles": "O=C(c1ccc(-c2cccn3c(=O)cc(C(F)(F)F)nc23)cc1F)N1CCc2cccnc21", "note": "[Example 78, 9-(4-(2,3-dihydro-1H-pyrrolo[2,3-b]pyridin-1-ylcarbonyl)-3-fluorophenyl)-2-(trifluoromethyl)-4H-pyrido[1,2-a]pyrimidin-4-one]", "activation at 30 µM": 94.2}, {"smiles": "C[C@@H]1CN(C(=O)c2ccc(-c3cccn4c(=O)c(Br)c(C(F)(F)F)nc34)cc2F)CCO1", "note": "[Example 74, 3-bromo-9-(3-fluoro-4-(((2R)-2-methylmorpholin-4-yl)carbonyl)phenyl)-2-(trifluoromethyl)-4H-pyrido[1,2-a]pyrimidin-4-one]", "activation at 30 µM": 88.2}, {"smiles": "Cc1c(C(F)(F)F)nc2c(-c3ccc(C(=O)NC4CCOCC4)c(F)c3)cccn2c1=O", "note": "[Example 85, 2-fluoro-4-(3-methyl-4-oxo-2-(trifluoromethyl)-4H-pyrido[1,2-a]pyrimidin-9-yl)-N-(tetrahydro-2H-pyran-4-yl)benzamide]", "activation at 30 µM": 109}, {"smiles": "Cc1c(C(F)(F)F)nc2c(-c3ccc(C(=O)N[C@@H]4CCCOC4)cc3)cccn2c1=O", "note": "[Example 102, 4-(3-methyl-4-oxo-2-(trifluoromethyl)-4H-pyrido[1,2-a]pyrimidin-9-yl)-N-((3R)-tetrahydro-2H-pyran-3-yl)benzamide]", "activation at 30 µM": 73.8}, {"smiles": "O=C(c1ccc(-c2cccn3c(=O)cc(C(F)(F)F)nc23)cc1F)N1CCOCC1", "note": "[Example 44, 9-(3-fluoro-4-(morpholin-4-ylcarbonyl)phenyl)-2-(trifluoromethyl)-4H-pyrido[1,2-a]pyrimidin-4-one]", "activation at 30 µM": 73.8}, {"smiles": "O=C(c1ccc(-c2cccn3c(=O)c(Br)c(C(F)(F)F)nc23)cc1F)N1CCOCC1", "note": "[Example 46, 3-bromo-9-(3-fluoro-4-(morpholin-4-ylcarbonyl)phenyl)-2-(trifluoromethyl)-4H-pyrido[1,2-a]pyrimidin-4-one]", "activation at 30 µM": 77.3}, {"smiles": "CO[C@@H]1CCN(C(=O)c2ccc(-c3cccn4c(=O)c(C)c(C(F)(F)F)nc34)cc2F)C1", "note": "[Example 90, 9-(3-fluoro-4-(((3R)-3-methoxypyrrolidin-1-yl)carbonyl)phenyl)-3-methyl-2-(trifluoromethyl)-4H-pyrido[1,2-a]pyrimidin-4-one]", "activation at 30 µM": 89.3}]}]}
